Source: patent US20260102383A1, “LPAR1 Inhibitors” (AbbVie Inc., priority 2024, published 2026)
pIC50: −log10 of the molar value.

Molecular target: T1, human LPAR1 (Homo sapiens, UniProt Q92633)
T1 construct: host or cells: TangoEDG2-bla U2OS cells
Experiment: Arrestin assay (Arrestin Reporter EDG2-bla U2OS), inhibition of LPA-stimulated signal
Type: cell-based
Settings: TangoEDG2-bla U2OS cells expressing human LPAR1; 0.25 μM LPA; read-out: Arrestin Reporter EDG2-bla U2OS Human Merged IC50
How it was run: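 IC50 comes from a variable-slope 4-parameter fit of % inhibition, calculated from the beta-lactamase FRET ratio (emission 460/530 nm, excitation 409 nm, 2 h development at RT). Compounds, 10 μM down to 0.00006 μM in 3-fold steps, were given 1 h before 0.25 μM final LPA for 3 h in TangoEDG2-bla U2OS cells.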

T1 sequence (Q92633 whole entry): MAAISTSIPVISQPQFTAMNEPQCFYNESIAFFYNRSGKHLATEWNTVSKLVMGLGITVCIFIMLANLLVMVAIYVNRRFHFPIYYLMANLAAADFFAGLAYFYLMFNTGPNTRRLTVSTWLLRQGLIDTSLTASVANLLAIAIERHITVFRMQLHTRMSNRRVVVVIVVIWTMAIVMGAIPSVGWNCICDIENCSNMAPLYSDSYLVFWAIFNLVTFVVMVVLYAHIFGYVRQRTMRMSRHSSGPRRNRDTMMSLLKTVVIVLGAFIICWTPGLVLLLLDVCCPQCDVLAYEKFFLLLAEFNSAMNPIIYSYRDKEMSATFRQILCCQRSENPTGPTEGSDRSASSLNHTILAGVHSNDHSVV

CCOC(CN1CCC(C(=O)Nc2ccc(Cl)cc2OC(F)F)(n2nccc2C(C)C)CC1)C(=O)O (centres unmarked) [Compound 134, 3-[4-[[4-chloro-2-(difluoromethoxy)phenyl]carbamoyl]-4-(5-isopropylpyrazol-1-yl)-1-piperidyl]-2-ethoxy-propanoic acid]
pIC50: 7.15

CC(C)c1ccnn1C1(C(=O)Nc2ccc(Cl)cc2OC(F)F)CCN(CC(C)(C)C(=O)O)CC1 [Compound 83, 3-[4-[[4-chloro-2-(difluoromethoxy)phenyl]carbamoyl]-4-(5-isopropylpyrazol-1-yl)-1-piperidyl]-2,2-dimethyl-propanoic acid]
pIC50: 7.61

CC(C)c1ccnn1C1(C(=O)Nc2ccc(Cl)cc2OC(F)F)CCN([C@H]2C[C@@]3(C[C@H]3C(=O)O)C2)CC1 (relative stereo) [Compound 106, rel-(1R,3r,5S)-5-[4-1[4-chloro-2-(difluoromethoxy)phenyl]carbamoyl]-4-(5-isopropylpyrazol-1-yl)-1-piperidyl]spiro[2.3]hexane-2-carboxylic acid]
pIC50: 7.32

CC(C)c1ccnn1C1(C(=O)Nc2ccc(Cl)cc2OC(F)F)CCN(CC2(C(=O)O)CCN(C(=O)OC(C)(C)C)CC2)CC1 [Compound 4, 1-tert-butoxycarbonyl-4-[[4-[[4-chloro-2-(difluoromethoxy)phenyl]carbamoyl]-4-(5-isopropylpyrazol-1-yl)-1-piperidyl]methyl] piperidine-4-carboxylic acid]
pIC50: 7.64

CC(C)c1c(F)cnn1C1(C(=O)Nc2ccc(Cl)cc2OC(F)F)CCN([C@H]2C[C@@H](C(=O)O)C2)CC1 (single isomer, unassigned) [Compound 123, (1s,3s)-3-[4-[[4-chloro-2-(difluoromethoxy)phenyl]carbamoyl]-4-(4-fluoro-S-isopropyl-pyrazol-1-yl)-1-piperidyl]cyclobutanecarboxylic acid]
pIC50: 7.41

CC(C)c1ccnn1C1(C(=O)Nc2ccc(Cl)cc2OC(F)F)CCN(CC2(C(=O)O)CCOCC2)CC1 [Compound 3, 4-[[4-[[4-chloro-2-(difluoromethoxy)phenyl]carbamoyl]-4-(5-isopropylpyrazol-1-yl)-1-piperidyl]methyl]tetrahydropyran-4-carboxylic acid]
pIC50: 7.83

COC12CC(C(=O)N3CCC(CN4CCC(C(=O)Nc5ccc(Cl)cc5OC(F)F)(n5nccc5C(C)C)CC4)(C(=O)O)CC3)(C1)C2 [Compound 68, 4-[[4-[[4-chloro-2-(difluoromethoxy)phenyl]carbamoyl]-4-(5-isopropylpyrazol-1-yl)-1-piperidyl]methyl]-1-(3-methoxybicyclo[1.1.1]pentane-1-carbonyl)piperidine-4-carboxylic acid]
pIC50: 7.18

CC(C)c1ccnn1C1(C(=O)Nc2ccc(Cl)cc2OC(F)F)CCN([C@H]2CO[C@@H](C(=O)O)C2)CC1 [Compound 139, (2R,4R)-4-[4-[[4-chloro-2-(difluoromethoxy)phenyl]carbamoyl]-4-(5-isopropylpyrazol-1-yl)-1-piperidyl]tetrahydrofuran-2-carboxylic acid]
pIC50: 7.27

CC(C)c1ccnn1C1(C(=O)Nc2ccc(Cl)cc2OC(F)F)CCN(C[C@@H](C(=O)O)[C@@H]2CCOC2)CC1 (single isomer, unassigned) [Compound 151]
pIC50: 7.12

CC(C)c1ccnn1C1(C(=O)Nc2ccc(Cl)cc2OC(F)F)CCN(CC2(C(=O)O)CCOC2)CC1 (stereo in doubt) [Compound 23, (3S)-3-[[4-[[4-chloro-2-(difluoromethoxy)phenyl]carbamoyl]-4-(5-isopropylpyrazol-1-yl)-1-piperidyl]methyl]tetrahydrofuran-3-carboxylic acid]
pIC50: 7.55

CC(C)c1ccnn1C1(C(=O)Nc2ccc(Cl)cc2OC(F)F)CCN(C[C@@H](C(=O)O)c2cnn(C)c2)CC1 [Compound 155, (2S)-3-[4-[[4-chloro-2-(difluoromethoxy)phenyl]carbamoyl]-4-(5-isopropylpyrazol-1-yl)-1-piperidyl]-2-(1-methylpyrazol-4-yl)propanoic acid]
pIC50: 6.90

CC(C)c1ccnn1C1(C(=O)Nc2ccc(Cl)cc2OC(F)F)CCN([C@H]2C[C@@](C(=O)O)(C(F)(F)F)C2)CC1 [Compound 107, (1s,3s)-3-[4-[[4-chloro-2-(difluoromethoxy)phenyl]carbamoyl]-4-(5-isopropylpyrazol-1-yl)-1-piperidyl]-1-(trifluoromethyl) cyclobutanecarboxylic acid]
pIC50: 7.40

CC(C)c1ccnn1C1(C(=O)Nc2ccc(Cl)cc2OC(F)F)CCN(C[C@@H](CO)C(=O)O)CC1 [Compound 182]
pIC50: 7.44

CC(C)c1c(F)cnn1C1(C(=O)Nc2ccc(Cl)cc2OC(F)F)CCN(CC2(C(=O)O)CCOCC2)CC1 [Compound 66, 4-[[4-[[4-chloro-2-(difluoromethoxy)phenyl]carbamoyl]-4-(4-fluoro-5-isopropyl-pyrazol-1-yl)-1-piperidyl]methyl]tetrahydropyran-4-carboxylic acid]
pIC50: 7.64

CC(C)c1ccnn1C1(C(=O)Nc2ccc(Cl)cc2OC(F)F)CCN(CC2(C(=O)O)CCCCO2)CC1 (centres unmarked) [Compound 30, 2-[[4-[[4-chloro-2-(difluoromethoxy)phenyl]carbamoyl]-4-(5-isopropylpyrazol-1-yl)-1-piperidyl]methyl] tetrahydropyran-2-carboxylic acid]
pIC50: 7.90

CC(C)c1ccnn1C1(C(=O)Nc2ccc(Cl)cc2OC(F)F)CCN(C[C@H](C(=O)O)N2CCOC(C)(C)C2)CC1 [Compound 166]
pIC50: 6.92

CCC(CC)(CN1CCC(C(=O)Nc2ccc(Cl)cc2OC(F)F)(n2nccc2C(C)C)CC1)C(=O)O [Compound 67]
pIC50: 7.68

COCC[C@@H](CN1CCC(C(=O)Nc2ccc(Cl)cc2OC(F)F)(n2nccc2C(C)C)CC1)C(=O)O [Compound 156, (2S)-2-[[4-[[4-chloro-2-(difluoromethoxy)phenyl]carbamoyl]-4-(5-isopropylpyrazol-1-yl)-1-piperidyl]methyl]-4-methoxy-butanoic acid]
pIC50: 7.30

CC(C)c1ccnn1C1(C(=O)Nc2ccc(Cl)cc2OC(F)F)CCN(CC2(C(=O)O)CCN(C(=O)CC34CC(C3)C4)CC2)CC1 [Compound 53, 1-[2-(1-bicyclo[1.1.1]pentanyl)acetyl]-4-[[4-[[4-chloro-2-(difluoromethoxy)phenyl]carbamoyl]-4-(5-isopropylpyrazol-1-yl)-1-piperidyl]methyl]piperidine-4-carboxylic acid]
pIC50: 7.87

CC(C)c1c(F)cnn1C1(C(=O)Nc2ccc(Cl)cc2OC(F)F)CCN(CC(C)(C)C(=O)O)CC1 [Compound 240, 3-[4-[[4-chloro-2-(difluoromethoxy)phenyl]carbamoyl]-4-(4-fluoro-5-isopropyl-pyrazol-1-yl)-1-piperidyl]-2,2-dimethyl-propanoic acid]
pIC50: 7.62

CC(C)c1ccnn1C1(C(=O)Nc2ccc(Cl)cc2OC(F)F)CCN(C[C@H](C(=O)O)[C@@H]2CCOC2)CC1 (single isomer, unassigned) [Compound 152]
pIC50: 7.39

CCOC(=O)N1CC[C@](CN2CCC(C(=O)Nc3ccc(Cl)cc3OC(F)F)(n3nccc3C(C)C)CC2)(C(=O)O)C1 [Compound 56, (3R)-3-[[4-[[4-chloro-2-(difluoromethoxy)phenyl]carbamoyl]-4-(5-isopropylpyrazol-1-yl)-1-piperidyl]methyl]-1-ethoxycarbonyl-pyrrolidine-3-carboxylic acid]
pIC50: 8.17

CO[C@H]1C[C@@H]([C@H](CN2CCC(C(=O)Nc3ccc(Cl)cc3OC(F)F)(n3nccc3C(C)C)CC2)C(=O)O)C1 [Compound 226]
pIC50: 7.40

CC(C)c1ccnn1C1(C(=O)Nc2ccc(Cl)cc2OC(F)F)CCN(C[C@]2(C(=O)O)CCCO2)CC1 [Compound 21, (2S)-2-[[4-[[4-chloro-2-(difluoromethoxy)phenyl]carbamoyl]-4-(5-isopropylpyrazol-1-yl)-1-piperidyl]methyl] tetrabydrofuran-2-carboxylic acid]
pIC50: 7.84

CC(C)c1ccnn1C1(C(=O)Nc2ccc(Cl)cc2OC(F)F)CCN(CC(C(=O)O)c2cccnc2)CC1 (centres unmarked) [Compound 17, 3-[4-[[4-chloro-2-(difluoromethoxy)phenyl]carbamoyl]-4-(5-isopropylpyrazol-1-yl)-1-piperidyl]-2-(3-pyridyl)propanoic acid]
pIC50: 7.84

CCOC(=O)N1CC(CN2CCC(C(=O)Nc3ccc(Cl)cc3OC(F)F)(n3nccc3C(C)C)CC2)(C(=O)O)C1 [Compound 97, 3-[[4-[[4-chloro-2-(difluoromethoxy)phenyl]carbamoyl]-4-(5-isopropylpyrazol-1-yl)-1-piperidyl]methyl]-1-ethoxycarbonyl-azetidine-3-carboxylic acid]
pIC50: 6.91

CC(C)c1ccnn1C1(C(=O)Nc2ccc(Cl)cc2OC(F)F)CCN(C[C@@]2(C(=O)O)CCOC(C)(C)C2)CC1 [Compound 172, (4R)-4-[[4-[[4-chloro-2-(difluoromethoxy)phenyl]carbamoyl]-4-(5-isopropylpyrazol-1-yl)-1-piperidyl]methyl]-2,2-dimethyl-tetrahydropyran-4-carboxylic acid]
pIC50: 7.15

COCC[C@@H](CN1CCC(C(=O)Nc2ccc(Cl)cc2OC(F)F)(n2ncc3c2C(C)(C)OC3)CC1)C(=O)O [Compound 210, (2S)-2-[[4-[[4-chloro-2-(difluoromethoxy)phenyl]carbamoyl]-4-(6,6-dimethyl-4H-furo[3,4-c]pyrazol-1-yl)-1-piperidyl]methyl]-4-methoxy-butanoic acid]
pIC50: 6.91

CC(C)COC(=O)N1CCC(CN2CCC(C(=O)Nc3ccc(Cl)cc3OC(F)F)(n3nccc3C(C)C)CC2)(C(=O)O)CC1 [Compound 89, 4-[[4-[[4-chloro-2-(difluoromethoxy)phenyl]carbamoyl]-4-(5-isopropylpyrazol-1-yl)-1-piperidyl]methyl]-1-isobutoxycarbonyl-piperidine-4-carboxylic acid]
pIC50: 8.23
